“Also recorded” adds a separate entry of the source.
Tests used:
[1] = tested on: New Zealand (NZA) rabbit eye; assay: ocular irritation in the New Zealand (NZA) rabbit (Hackett/McDonald scoring); type: in vivo
Description: Compound II and PGF2α isopropyl ester (PGF2α iPr) were tested for ocular irritation in the New Zealand (NZA) rabbit. The prostaglandins were administered in 30 μL of test formulation. Conjunctival hyperemia, swelling and discharge were evaluated using a system devised to grossly compare the irritation potential of prostaglandins in the NZA rabbit. Using the Hackett/McDonald scoring system (Hackett, R. B. and McDonald, T. O. "Eye Irritation" in Dermatotoxicology, 4th edition, Marzulli, F. N. and Maibach, H. I. editors, Hemisphere Publishing Corp., Washington D.C. (1991)), conjunctival hyperemia, conjunctival swelling, and ocular discharge were graded using a slit-lamp prior to compound instillation and 1, 2, 3, and 5 hours after topical ocular instillation of the test compound. The percentage of eyes scoring +2 or greater for all time points was calculated for each parameter (conjunctival hyperemia, conjunctival swelling, and ocular discharge). To facilitate comparison, PGF2α iPr was administered at the same time as the test agent.

cynomologus monkey eyes = assay: IOP-lowering effect in cynomologus monkey eyes (lasered, ocular hypertensive); type: in vivo
Description: Compound II and PGF2α isopropyl ester (PGF2α iPr) were tested for IOP-lowering effect in cynomologus monkey eyes. The right eyes of the cynomologus monkeys in this study were previously given laser trabeculoplasty to induce ocular hypertension in the lasered eye. Animals had been trained to sit in restraint chairs and conditioned to accept experimental procedures without chemical restraint. IOP was determined with a pneumatonometer after light comeal anesthesia with dilute proparacaine. The test protocol included a five-dose b.i.d. treatment regimen because of the typical delayed response to prostaglandins. The test formulations were administered to the lasered right eyes, and the normal left eyes remained untreated for compound 11, or to both eyes for PGF2α isopropyl ester (PGF2α iPr). Baseline IOP values were determined prior to treatment with the test formulation, and IOP was determined 16 hours after the fourth dose for all compounds, 2, 4, and 6 hours after the fifth dose for compound II, and 1, 3 and 7 hours after the fifth dose for PGF2α iPr. Results are presented in Table 2 as the mean percent reduction of IOP from baseline +/- SEM. Prostaglandins were administered in 30 μL of test formulation.

[2] = tested on: intraocular pressure (IOP); details: cited from earlier work
[3] = 1.0 μg, topical ocular, administered at the same time as the test agent
[4] = 1.0 μg, topical ocular, second of two values, administered at the same time as the test agent
[5] = 3 μg, topical ocular, 1, 2, 3, 5 hours
[6] = 10.0 μg, topical ocular, 1, 2, 3, 5 hours

With CCCCC[C@H](O)/C=C/[C@@H]1[C@@H](C/C=C\CCCC(=O)OC(C)C)[C@@H](O)C[C@H]1O [PGF2α iPr, PGF2α isopropyl ester, reference compound] the “% Incidence, Conjunctival Hyperemia (eyes scoring +2 or greater for all time points)” value (shortened to “% Incidence, Conjunctival Hyperemia”) [1, 3] was 58%, the “% Incidence, Conjunctival Swelling (eyes scoring +2 or greater for all time points)” value (“% Incidence, Conjunctival Swelling” for short) [1, 3] was 67% and the “% Incidence, Discharge (eyes scoring +2 or greater for all time points)” value (shortened to “% Incidence, Discharge”) [1, 3] was 47%. The “% Incidence, Conjunctival Hyperemia” value [1, 4] was 58%, the “% Incidence, Conjunctival Swelling” value [1, 4] was 63% and the “% Incidence, Discharge” value [1, 4] was 48%. The “ocular irritation / ocular side effects (in words)” value ([1]; Table 1) was “relatively high incidence of hyperemia, conjunctival swelling and discharge”, the “Percent IOP Reduction +/-SEM” value (cynomologus monkey eyes; 1.0 μg b.i.d., both eyes, 1 hour after fifth dose (1/5), baseline IOP 34.8 mm Hg) was 27.6% and the “Percent IOP Reduction +/-SEM” value (cynomologus monkey eyes; 1.0 μg b.i.d., both eyes, 3 hours after fifth dose (3/5), baseline IOP 34.8 mm Hg) was 38 +/- 1.7%. For the same compound, the “Percent IOP Reduction +/-SEM” value (cynomologus monkey eyes; 1.0 μg b.i.d., both eyes, 7 hours after fifth dose (7/5), baseline IOP 34.8 mm Hg) was 25.6 +/- 14.4% and the “Percent IOP Reduction +/-SEM” value (cynomologus monkey eyes; 1.0 μg b.i.d., both eyes, 16 hours after fourth dose (16/4), baseline IOP 34.8 mm Hg) was 5.8 +/- 4.0%.
For CCCCC[C@H](O)/C=C/[C@@H]1[C@@H](C/C=C\CCCC(=O)O)[C@@H](O)C[C@H]1O [PGF2α], the “IOP lowering (in words)” value ([2]; after topical ocular instillation, background) is listed as “known to lower intraocular pressure (IOP)” and the “side effects (in words)” value ([2]; in vivo) is listed as “can cause conjunctival hyperemia and/or edema as well as inflammation”.
With CC(C)OC(=O)CCC/C=C\C[C@@H]1[C@@H](SC[C@@H](O)COc2cccc(Cl)c2)[C@H](O)C[C@@H]1O [Compound II, (5Z)-(9S, 11R, 15S)-9, 11, 15-trihydroxy-16-m-chlorophenoxy-13-thia-17,18, 19, 20-tetranor-5-prostenoic acid isopropyl ester] the “% Incidence, Conjunctival Hyperemia” value [1, 5] was 0%, the “% Incidence, Conjunctival Swelling” value [1, 5] was 30% and the “% Incidence, Discharge” value [1, 5] was 0%. The “% Incidence, Conjunctival Hyperemia” value [1, 6] was 23%, the “% Incidence, Conjunctival Swelling” value [1, 6] was 33% and the “% Incidence, Discharge” value [1, 6] was 5%. The “ocular irritation / ocular side effects (in words)” value ([1]; Table 1) was “attenuates the ocular side effects; also recorded: low incidence of side effects”, the “ocular irritation / ocular side effects (in words)” value ([1]; Table 1, listed as 11) was “low incidence of ocular irritation” and the “Percent IOP Reduction +/-SEM” value (cynomologus monkey eyes; 1.0 μg b.i.d., 2 hours after fifth dose (2/5), baseline IOP 31.6 mm Hg) was 13.9 +/- 6.8%. The “Percent IOP Reduction +/-SEM” value (cynomologus monkey eyes; 1.0 μg b.i.d., 4 hours after fifth dose (4/5), baseline IOP 31.6 mm Hg) was 8.1 +/- 6.6%, the “Percent IOP Reduction +/-SEM” value (cynomologus monkey eyes; 1.0 μg b.i.d., 6 hours after fifth dose (6/5), baseline IOP 31.6 mm Hg) was 10 +/- 6.2% and the “Percent IOP Reduction +/-SEM” value (cynomologus monkey eyes; 1.0 μg b.i.d., 16 hours after fourth dose (16/4), baseline IOP 31.6 mm Hg) was 4.6 +/- 6.1%. For the same compound, the “Percent IOP Reduction +/-SEM” value (cynomologus monkey eyes; 3.0 μg b.i.d., 2 hours after fifth dose (2/5), baseline IOP 32.2 mm Hg) was 23.3%, the “Percent IOP Reduction +/-SEM” value (cynomologus monkey eyes; 3.0 μg b.i.d., 4 hours after fifth dose (4/5), baseline IOP 32.2 mm Hg) was 24.2 +/- 3.6% and the “Percent IOP Reduction +/-SEM” value (cynomologus monkey eyes; 3.0 μg b.i.d., 6 hours after fifth dose (6/5), baseline IOP 32.2 mm Hg) was 24.9 +/- 3.4%. For the same compound, the “Percent IOP Reduction +/-SEM” value (cynomologus monkey eyes; 3.0 μg b.i.d., 16 hours after fourth dose (16/4), baseline IOP 32.2 mm Hg) was 18.0 +/- 3.0% and the “IOP reduction (in words)” value (cynomologus monkey eyes; for the time period tested, Table 2) was “significant degree of IOP reduction”.

Reference: patent US6172109A, “13-Thia prostaglandins for use in glaucoma therapy” (priority 1998, dated 2001)
